Results published in PMC6597546, “Identification of a potent benzoxaborole drug candidate for treating cryptosporidiosis” (Nature Communications, 2019).
pEC50: −log10 of the molar value. Where “and” joins values, the source holds several entries; their conditions need not be identical. Equal values may be shown once. Read-outs that look alike come from different tables or passages of the source. Each block holds one compound with its values, some of them ahead of it.

Assays:
[1] = test system: C. parvum invasion of HCT-8 host cells; experiment: HCT-8 host cell invasion assay; format: cell-based, Cryptosporidium parvum; conditions: 11.3 µM, HCT-8 invasion 3 h
Experimental: (§1) The invasion assay, DNA replication assay, asexual to sexual stage conversion, and time-kill curve assays were performed using fluorescence microscopy to enumerate parasites and host cell nuclei. Staining protocols are individually described for each assay. Unless noted otherwise, the details of image acquisition were as follows. An inverted Nikon Eclipse Ti2000 microscope with an automated stage and Perfect Focus was used with NIS-Elements Advanced Research software (Nikon, USA, version 4.30.01) to image the wells. The microscope was programmed to focus on the center of each well and then take a 3 × 3 composite image per well using a 20 × (0.45 NA) objective. Images were exported as .tiff files and parasites and host nuclei counted using a custom macro on ImageJ (National Institutes of Health, version 1.52a). Data were analyzed using Microsoft Excel and GraphPad Prism (version 6.01).
Host cell invasion was assayed by allowing C. parvum to invade host cell monolayers in the presence of compound, and enumerating parasites and host cells after just 3 h (i.e., before completion of a parasite division cycle)[38]. HCT-8 cells were grown in RPMI media supplemented with 120 U per mL penicillin and 120 μg per mL streptomycin and 10% heat inactivated fetal bovine serum (complete media) and C. parvum Iowa isolate oocysts from Bunch Grass Farms (Deary, ID) were used for infection. When cells reached a confluence of >99%, media was removed and replaced with 25 µL per well of fresh media containing twice the indicated concentrations of compounds and incubated for 1 h at 37 °C in a humidified CO2 incubator. In the meantime, oocysts were induced for excystation by first treating with 10 mM hydrochloric acid (diluted with distilled water) for 10 min at 37 °C followed by 2 mM sodium taurocholate (in phosphate buffered saline (PBS) with calcium and magnesium) for 10 min at 16 °C. Before and after each treatment, oocysts were spun down at 14,000 × g for 4.5 min and supernatant was removed. […]

[2] = test system: C. parvum (Bunch Grass Farms Iowa isolate); experiment: NOD scid gamma (NSG) mouse model of established C. parvum infection; format: in vivo, NOD scid gamma mice; conditions: for parasite fecal shedding (qPCR), individual mice: 2,000 mg/kg
Experimental: NOD scid gamma mice (NOD.Cg-Prkdcscid Il2rgtm1Wjl/SzJ)[55] (NSG) were used to model chronic Cryptosporidium infection. All NSG mouse studies were performed in compliance with animal care guidelines and with approval by the University of Vermont Institutional Animal Care and Use Committee. NSG mice with normal flora were purchased from The Jackson Laboratory (Bar Harbor, ME) and were housed for at least a week for acclimatization. […] Fecal parasite shedding was measured using a quantitative PCR (qPCR) assay, and the primers named above as Cp18s forward and Cp18s reverse.

C. parvum = C. parvum growth inhibition in HCT-8 cells (follow-up assay, Vicia villosa lectin staining); format: cell-based, Cryptosporidium parvum; conditions: Iowa (BGF, 10%FBS), HCT-8, single replicates, unit inferred, read-out: In vitro efficacy (Fig 2b, EC50)
Experimental: Follow-up assays were performed at the University of Vermont (UVM) and Calibr at Scripps Research by infection of the colonic adenocarcinoma cell line HCT-8 (ATCC CCL-244) and staining with the Vicia villosa lectin and DAPI[17],[32]. The FBS concentrations and parasites used for these assays were as indicated; parasite isolates and sources included C. parvum Iowa isolate oocysts purchased from Bunch Grass Farm (Deary, ID), C. parvum Iowa isolate oocysts purchased from the Sterling Laboratory (University of Arizona, Tucson, AZ), wild type C. parvum oocysts provided by Dr. Jenni Zambriski (Virginia Tech, Blacksburg, VA), and the C. hominis TU502 isolate purchased from Dr. Saul Tzipori (Tufts University Cummings School of Veterinary Medicine, North Grafton, MA). […] Amphotericin B (Sigma, catalog# A2942) was added to the culture media at 0.1 to 0.5 µg per mL for the DMC1 dose response assays.

[3] = test system: C. parvum (Bunch Grass Farms Iowa isolate); experiment: Time-kill curve assay in HCT-8 cells; format: cell-based, Cryptosporidium parvum; conditions: for time-kill curve result: compound added ~24 h after infection of HCT-8
Experimental: as §1, with “6.01). […] C. parvum Iowa isolate oocysts (Bunch Grass Farms, Deary, ID) were treated to induce excystation and added to >90% confluent HCT-8 cells in 384-well plates. […] The monolayers were then washed, fixed, and stained with Vicia villosa lectin and DAPI at the indicated time points, and imaged as for the C. parvum growth assay. Separate 384-well plates were used for each time point. Parasite numbers were normalized to host cell nucleus numbers and expressed as the percentage of host cells infected. Drug-induced parasite decay was isolated from the reduction in parasites over time that occurs spontaneously in the HCT-8 culture system by expressing the number of parasites as the percentage of the number of parasites present at each time point under control (DMSO-treated) conditions.” for “6.01).”

[4] = test system: C. parvum DMC1 positive parasites; set-up: method as in PMID 31015448; conditions: cited from earlier work

SMILES: CN(C)C[C@H](O)Cn1c2ccc(Br)cc2c2cc(Br)ccc21 (racemic) [Wiskostatin, wiskostatin]
% Inhibition (normalized to DMSO control) [1]: 92% | inhibition at 11.3 µM ([1]; Cryptosporidium parvum, HCT-8, 3 h, read-out: % Inhibition (normalized to DMSO control)): 90%

SMILES: NC[C@@H]1O[C@H](O[C@H]2[C@@H](O)[C@H](O[C@@H]3[C@@H](O)[C@H](N)C[C@H](N)[C@H]3O[C@H]3O[C@H](CO)[C@@H](O)[C@H](O)[C@H]3N)O[C@@H]2CO)[C@H](N)[C@@H](O)[C@@H]1O [Paromomycin, paromomycin, reference compound]
parasite fecal shedding (qPCR), individual mice ([2]; D7 (before treatment)): 801.749 oocysts/mg feces and 822.565 oocysts/mg feces and 435.223 oocysts/mg feces and 38.903 oocysts/mg feces | parasite fecal shedding (qPCR), individual mice ([2]; D11): 28.872 oocysts/mg feces and 141.665 oocysts/mg feces and 45.072 oocysts/mg feces and 47.829 oocysts/mg feces | reduction of fecal parasite shedding ([2]; paromomycin positive control, after 4 days of treatment, once daily oral): ~90%

pEC50 (C. parvum; Cryptosporidium parvum, HCT-8, in Vicia villosa): 5.93 | pEC50 (C. parvum): 5.68 and 5.76
SMILES: CC(=O)Oc1ccccc1C(=O)Nc1ncc([N+](=O)[O-])s1 [Nitazoxanide, nitazoxanide]
% C. parvum relative to DMSO control ([3]; EC90, 0 h exposure): 92.14% and 109.39% and 105.07% and 102.65% | % C. parvum relative to DMSO control ([3]; EC90, 6 h exposure): 89.44% and 63.73% and 107.77% and 101.99% | % C. parvum relative to DMSO control ([3]; EC90, 12 h exposure): 64.07% and 50.47% and 61.96% and 52.34% | % C. parvum relative to DMSO control ([3]; EC90, 24 h exposure): 33.99% and 23.15% and 39.39% and 30.38% | % C. parvum relative to DMSO control ([3]; EC90, 48 h exposure): 66.11% and 87.75% and 96.10% and 82.36% | % C. parvum relative to DMSO control ([3]; EC90, 72 h exposure): 59.95% and 89.51% and 62.55% and 99.92% | time-kill curve result [3]: likely parasitistatic or very slow acting | time-kill curve result ([3]; listed as NTZ): No exponential decay curve can be fit | % Parasite / host nuclei ([3]; compound at 3 x EC90, 0 h exposure, listed as Nitazonxanide): 25.13% and 23.57% and 25.93% and 26.94% | % Parasite / host nuclei ([3]; compound at 3 x EC90, 6 h exposure, listed as Nitazonxanide): 30.07% and 28.12% and 27.66% | % Parasite / host nuclei ([3]; compound at 3 x EC90, 24 h exposure, listed as Nitazonxanide): 13.35% and 18.43% and 17.09% and 15.85% | % Parasite / host nuclei ([3]; compound at 3 x EC90, 48 h exposure, listed as Nitazonxanide): 16.05% and 22.2% and 25.78% and 20.53% | % Parasite / host nuclei ([3]; compound at 3 x EC90, 72 h exposure): Toxic | % Parasite / host nuclei ([3]; compound at 6 x EC90, 0 h exposure, listed as Nitazonxanide): 26.94% and 25.13% and 23.57% and 25.93% | % Parasite / host nuclei ([3]; compound at 6 x EC90, 6 h exposure, listed as Nitazonxanide): 30.15% and 26.39% and 33.45% and 27.12% | % Parasite / host nuclei ([3]; compound at 6 x EC90, 24 h exposure, listed as Nitazonxanide): 10.66% and 16.54% and 13.19% and 15.55% | % Parasite / host nuclei ([3]; compound at 6 x EC90, 48 h exposure, listed as Nitazonxanide): 24.32% and 23.51% and 19.71% and 19.93% | % Parasite / host nuclei ([3]; compound at 6 x EC90, 72 h exposure): Toxic | % Parasite / host nuclei ([3]; compound at 9 x EC90, 0 h exposure, listed as Nitazonxanide): 26.94% and 25.13% and 23.57% and 25.93% | % Parasite / host nuclei ([3]; compound at 9 x EC90, 6 h exposure, listed as Nitazonxanide): 26.17% and 22.66% and 19.45% and 20.04% | % Parasite / host nuclei ([3]; compound at 9 x EC90, 24 h exposure, listed as Nitazonxanide): 13.32% and 10.07% and 14.28% and 12.9% | % Parasite / host nuclei ([3]; compound at 9 x EC90, 48 h exposure, listed as Nitazonxanide): 23.17% and 21.12% and 20.67% and 21.26% | % Parasite / host nuclei ([3]; compound at 9 x EC90, 72 h exposure): Toxic | % Parasite / host nuclei ([3]; compound at 12 x EC90, 0 h exposure, listed as Nitazonxanide): 26.94% and 25.13% and 23.57% and 25.93% | % Parasite / host nuclei ([3]; compound at 12 x EC90, 24 h exposure, listed as Nitazonxanide): 12.84% and 10.89% and 15.16% and 10.85% | % Parasite / host nuclei ([3]; compound at 12 x EC90, 48 h exposure, listed as Nitazonxanide): 17.1% and 18.74% and 17.39% and 22.34% | % Parasite / host nuclei ([3]; compound at 12 x EC90, 72 h exposure): Toxic | % Parasite / host nuclei ([3]; compound at EC50, 0 h exposure, listed as Nitazonxanide): 26.94% and 25.13% and 23.57% and 25.93% | % Parasite / host nuclei ([3]; compound at EC50, 6 h exposure, listed as Nitazonxanide): 25.94% and 27.24% and 39.66% and 24.06% | % Parasite / host nuclei ([3]; compound at EC50, 24 h exposure, listed as Nitazonxanide): 49.74% and 52.37% and 49.99% and 64.54% | % Parasite / host nuclei ([3]; compound at EC50, 48 h exposure, listed as Nitazonxanide): 50.13% and 44.73% and 56.15% and 36.04% | % Parasite / host nuclei ([3]; compound at EC50, 72 h exposure, listed as Nitazonxanide): 36.74% and 33.35% and 25.45% and 34.5% | % Parasite / host nuclei ([3]; compound at EC90, 0 h exposure, listed as Nitazonxanide): 26.94% and 25.13% and 23.57% and 25.93% | % Parasite / host nuclei ([3]; compound at EC90, 6 h exposure, listed as Nitazonxanide): 29.07% | % Parasite / host nuclei ([3]; compound at EC90, 24 h exposure, listed as Nitazonxanide): 18.51% and 12.77% and 20.62% and 15.68% | % Parasite / host nuclei ([3]; compound at EC90, 48 h exposure, listed as Nitazonxanide): 23.29% and 31.8% and 31.94% and 28.34% | % Parasite / host nuclei ([3]; compound at EC90, 72 h exposure, listed as Nitazonxanide): 16.17% and 23.44% and 16.12% and 24.86%

SMILES: O=C(Nc1ccc(Cl)cc1)N1CCN(c2ccc3nncn3n2)CC1 [MMV665917]
potency against asexual vs sexual stage parasites [4]: equal potency against asexual and sexual stage parasites
